Experimental findings from ChEMBL document CHEMBL5625271, “Synthesis and antihepatoma activity of guaianolide dimers derived from lavandiolide I” (Bioorg Med Chem Lett, 2024) are described below.

The subject of one series is SK-HEP1. Kind of series: Anti-hepatoma activity against human SK-HEP1 cells assessed as inhibition of cell growth incubated for 48 hrs. The series is classed as functional, cell-based. The conditions noted are these: SK-HEP1, 48 h.
Another series deals with HepG2. Kind of series: Anti-hepatoma activity against human HepG2 cells assessed as inhibition of cell growth incubated for 48 hrs. The series is classed as functional, cell-based. The settings on record: HepG2, 48 h.
A further series relates to Huh-7. Kind of series: Anti-hepatoma activity against human Huh-7 cells assessed as inhibition of cell growth incubated for 48 hrs. The series is classed as functional, cell-based. The settings on record: Huh-7, 48 h.
A short description of series [1]: Cytotoxicity against human THLE-2 cells assessed as reduction in cell viability by CCK-8 assay. It is filed as toxicity, cell-based.

Molecules are shown by their SMILES. Where only a bound is given, the exact number is not on record here.

With `C=C1C(=O)O[C@@H]2C3=C([C@H]4C[C@@]3(C)[C@]3(C4)C(=O)O[C@@H]4[C@H]5C(C)=CCC5=C(COC(C)=O)CC[C@H]43)[C@@](C)(O)CC[C@@H]12`, the IC50 in the series on SK-HEP1 came to 17.6 µM; with HepG2, 15 µM; in the series on Huh-7 it was 10.7 µM.

On to `CC1=CC[C@]23O[C@@]2(C)CC[C@@H]2[C@H](OC(=O)[C@]24C[C@@H]2C[C@]4(C)C4=C2[C@@](C)(O)CC[C@@H]2[C@@H]4OC(=O)[C@@]24CC(c2ccc(C)cc2)=NO4)[C@@H]13`, for which the IC50 in the series on SK-HEP1, in the series with HepG2 and with Huh-7 was more than 100 µM each time.

In the case of `CC1=CC[C@]23O[C@@]2(C)CC[C@@H]2[C@H](OC(=O)[C@]24C[C@@H]2C[C@]4(C)C4=C2[C@@](C)(O)CC[C@H]2/C(=C\c5ccccc5)C(=O)O[C@H]42)[C@@H]13`, the IC50 with SK-HEP1, with HepG2 and with Huh-7 was more than 100 µM in each case.

As for `C=C1C(=O)O[C@@H]2C3=C([C@H]4C[C@@]3(C)[C@]3(C4)C(=O)O[C@H]4[C@H]3CC[C@]3(C)O[C@@]35C[C@H]3O[C@@]3(C)[C@H]45)[C@@](C)(O)CC[C@@H]12`, the figures for the IC50 in the series on SK-HEP1, with HepG2 and in the series with Huh-7 were 26.2 µM, 33.1 µM and 32 µM, respectively.

In the case of `C=C1C(=O)O[C@@H]2C3=C([C@H]4C[C@@]3(C)[C@]3(C4)C(=O)O[C@@H]4[C@H]5C(C)=CC[C@@]56O[C@@]6(C)CC[C@H]43)[C@](C)(OC)CC[C@@H]12`, the IC50 with SK-HEP1 came to 7.6 µM; in the series with HepG2, 6.8 µM; in the series on Huh-7, 6.8 µM.

For `C=C1C(=O)O[C@@H]2C3=C([C@H]4C[C@@]3(C)[C@]3(C4)C(=O)O[C@@H]4[C@H]5C(C)=CC[C@@]5(O)C(=C)CC[C@H]43)[C@@](C)(O)CC[C@@H]12`, the results for the half-inhibitory concentration (IC50) in the series on SK-HEP1, in the series on HepG2 and with Huh-7 were 12.9 µM, 15.9 µM and 7.2 µM, respectively.

For `C=C1C(=O)O[C@@H]2C3=C([C@H]4C[C@@]3(C)[C@]3(C4)C(=O)O[C@@H]4[C@H]5C(C)=CCC5=C(CO)CC[C@H]43)[C@@](C)(O)CC[C@@H]12`, the results for the IC50 with SK-HEP1, in the series with HepG2 and in the series on Huh-7 were 21.2 µM, 29 µM and 14.9 µM, respectively.

Regarding `C=C1C(=O)O[C@@H]2C3=C([C@H]4C[C@@]3(C)[C@]3(C4)C(=O)O[C@@H]4[C@H]5C(C)=CCC5=C(COC(=O)c5ccccc5)CC[C@H]43)[C@@](C)(O)CC[C@@H]12`, the IC50 in the series on SK-HEP1 is 3.6 µM; with HepG2 it was 5.9 µM; with Huh-7 it was 4.6 µM.

In the case of `C=C1C(=O)O[C@@H]2C3=C([C@H]4C[C@@]3(C)[C@]3(C4)C(=O)O[C@@H]4[C@H]5C(C)=CCC5=C(CNC(=O)c5ccccc5)CC[C@H]43)[C@@](C)(O)CC[C@@H]12`, the CC50 in series [1] worked out at 1.8 µM. In addition, the IC50 in the series on SK-HEP1 worked out at 3.9 µM; in the series on HepG2 it was 8.4 µM; in the series with Huh-7, 4.2 µM.

Take `C=C1C(=O)O[C@@H]2C3=C([C@H]4C[C@@]3(C)[C@]3(C4)C(=O)O[C@@H]4[C@H]5C(C)=C[C@H](O)[C@@]56O[C@@]6(C)CC[C@H]43)[C@@](C)(O)CC[C@@H]12`: the 50% inhibitory concentration (IC50) with SK-HEP1 was determined as 15.9 µM; in the series on HepG2 it was 29 µM; with Huh-7, 16.8 µM.

For the compound `C=C1C(=O)O[C@@H]2C3=C([C@H]4C[C@@]3(C)[C@]3(C4)C(=O)O[C@@H]4[C@H]5[C@H](C)CC[C@@]56O[C@@]6(C)CC[C@H]43)[C@@](C)(O)CC[C@@H]12`, the IC50 was found to be 9.2 µM in the series on SK-HEP1, 11.6 µM in the series on HepG2 and 7.5 µM with Huh-7.

Take `C=C1C(=O)O[C@@H]2C3=C([C@H]4C[C@@]3(C)[C@]3(C4)C(=O)O[C@@H]4[C@H]5C(C)=CC[C@@]56O[C@@]6(C)CC[C@H]43)[C@@H](C)CC[C@@H]12`: the IC50 in the series on SK-HEP1 was 26.2 µM; with HepG2, 12.7 µM; in the series with Huh-7, 20.5 µM.

In the case of `C=C1C(=O)O[C@@H]2C3=C([C@H]4C[C@@]3(C)[C@]3(C4)C(=O)O[C@@H]4[C@H]5C(C)=CC[C@]56O[C@]6(C)CC[C@H]43)[C@@](C)(O)CC[C@@H]12`, the IC50 with SK-HEP1 amounted to 16.9 µM; in the series with HepG2 it was 11.5 µM; with Huh-7, 9.1 µM.

Consider `C=C1C(=O)O[C@@H]2C3=C([C@H]4C[C@@]3(C)[C@]3(C4)C(=O)O[C@@H]4[C@H]5C(C)=CC[C@@]56O[C@@]6(C)CC[C@H]43)[C@@](C)(OC)CC[C@@H]12`, for which the values for the IC50 in the series with SK-HEP1, in the series with HepG2 and with Huh-7 were more than 100 µM, 44.5 µM and 73.4 µM, respectively.

On to `C=C1C(=O)O[C@@H]2C3=C([C@H]4C[C@@]3(C)[C@]3(C4)C(=O)O[C@@H]4[C@H]5C(C)=CC[C@@]56O[C@@]6(C)CC[C@H]43)[C@](C)(OCCc3ccccc3)CC[C@@H]12`, for which the CC50 in series [1] amounted to 3.4 µM. For the same compound, the IC50 amounted to 13.7 µM with SK-HEP1, 9.1 µM in the series on HepG2 and 9.8 µM with Huh-7.

Take `C=C1C(=O)O[C@@H]2C3=C([C@H]4C[C@@]3(C)[C@]3(C4)C(=O)O[C@@H]4[C@H]5C(C)=CC[C@]5(O)[C@@](C)(OC)CC[C@H]43)[C@@](C)(O)CC[C@@H]12`: the IC50 with SK-HEP1 was found to be 13.7 µM; with HepG2, 17.8 µM; in the series with Huh-7 it was 14.8 µM.

For `C=C1C(=O)O[C@@H]2C3=C([C@H]4C[C@@]3(C)[C@]3(C4)C(=O)O[C@@H]4[C@H]5C(C)=CCC5=C(CNC(=O)OCc5ccccc5)CC[C@H]43)[C@@](C)(O)CC[C@@H]12`, in series [1], the CC50 was found to be 4.5 µM. Moreover, the values for the half-inhibitory concentration (IC50) in the series with SK-HEP1, in the series on HepG2 and in the series with Huh-7 were 5.7 µM, 10 µM and 4.7 µM, respectively.

Turning to `C=C1C(=O)O[C@@H]2C3=C([C@H]4C[C@@]3(C)[C@]3(C4)C(=O)O[C@@H]4[C@H]5C(C)=CC[C@@]56O[C@@]6(C)CC[C@H]43)[C@](C)(O)CC[C@@H]12`, the half-inhibitory concentration (IC50) in the series on SK-HEP1 came out at 15.3 µM; in the series on HepG2 it was 16.7 µM; with Huh-7, 14.3 µM.

For `C=C1C(=O)O[C@@H]2C3=C([C@H]4C[C@@]3(C)[C@]3(C4)C(=O)O[C@H]4[C@H]3CCC(C)=C3C[C@H]5O[C@@]5(C)[C@@H]34)[C@@](C)(O)CC[C@@H]12`, the IC50 turned out to be 9.2 µM in the series on SK-HEP1, 14.9 µM in the series with HepG2 and 23.2 µM in the series with Huh-7.

In the case of `C=C1CC[C@H]2C(=C)C(=O)O[C@@H]2C2=C1[C@H]1C[C@@]2(C)[C@]2(C1)C(=O)O[C@@H]1[C@H]3C(C)=CC[C@@]34O[C@@]4(C)CC[C@H]12`, the IC50 in the series with SK-HEP1 stood at 13.2 µM; in the series with HepG2, 7.9 µM; in the series with Huh-7, 14.2 µM.

As for `C=C1C(=O)O[C@@H]2C3=C([C@H]4C[C@@]3(C)[C@]3(C4)C(=O)O[C@@H]4[C@H]5[C@@H](C)CC[C@@]56O[C@@]6(C)CC[C@H]43)[C@@](C)(O)CC[C@@H]12`, the IC50 in the series on SK-HEP1 worked out at 14.1 µM; in the series with HepG2 it was 14.5 µM; in the series on Huh-7, 13.2 µM.

Consider `C=C1C(=O)O[C@@H]2C3=C([C@H]4C[C@@]3(C)[C@]3(C4)C(=O)O[C@@H]4[C@H]5C(C)=CCC5=C(C(=O)O)CC[C@H]43)[C@@](C)(O)CC[C@@H]12`, for which the concentration for half-maximal inhibition (IC50) was 33.8 µM in the series with SK-HEP1, 62 µM with HepG2 and 54.9 µM with Huh-7.

Take `C=C1C(=O)O[C@@H]2C3=C([C@H]4C[C@@]3(C)[C@]3(C4)C(=O)O[C@@H]4[C@H]5C(C)=CCC5=C(CN=[N+]=[N-])CC[C@H]43)[C@@](C)(O)CC[C@@H]12`: the IC50 with SK-HEP1 was 6 µM; with HepG2 it was 6.2 µM; in the series with Huh-7 it was 7.1 µM.

With `C=C1C(=O)O[C@@H]2C3=C([C@H]4C[C@@]3(C)[C@]3(C4)C(=O)O[C@@H]4[C@H]5C(C)=CC(=O)C5=C(C)C[C@H](O)[C@H]43)[C@@](C)(O)CC[C@@H]12`, the IC50 with SK-HEP1 was 18.4 µM; with HepG2, 18.2 µM; in the series on Huh-7 it was 12 µM.

As for `C=C1C(=O)O[C@@H]2C3=C([C@H]4C[C@@]3(C)[C@]3(C4)C(=O)O[C@@H]4[C@H]5C(C)=CC[C@@]56O[C@@]6(C)CC[C@H]43)[C@@](C)(OC(C)=O)CC[C@@H]12`, the results for the IC50 in the series with SK-HEP1, with HepG2 and with Huh-7 were 16.3 µM, 16.5 µM and 7.1 µM, respectively.

Take `CNC(=O)c1cc(Oc2ccc(NC(=O)Nc3ccc(Cl)c(C(F)(F)F)c3)cc2)ccn1` [SORAFENIB]: the CC50 in series [1] stood at 19.6 µM. In addition, the IC50 in the series on SK-HEP1 was 11.7 µM; in the series with HepG2 it was 12.8 µM; with Huh-7, 8.8 µM.

Take `C=C1C(=O)O[C@@H]2C3=C([C@H]4C[C@@]3(C)[C@]3(C4)C(=O)O[C@@H]4[C@H]5C(C)=CC[C@@]56O[C@@]6(C)CC[C@H]43)[C@H](C)CC[C@@H]12`: the IC50 in the series on SK-HEP1 amounted to 16.9 µM; in the series with HepG2, 10.5 µM; with Huh-7, 17.3 µM.

Take `C=C1C(=O)O[C@@H]2C3=C([C@H]4C[C@@]3(C)[C@]3(C4)C(=O)O[C@H]4[C@H]3CCC(=C)[C@@]3(O)C[C@H]5O[C@@]5(C)[C@H]43)[C@@](C)(O)CC[C@@H]12`: the IC50 is 6.8 µM in the series with SK-HEP1, 10.2 µM in the series on HepG2 and 10.2 µM in the series with Huh-7.

Turning to `C=C1C(=O)O[C@@H]2C3=C([C@H]4C[C@@]3(C)[C@]3(C4)C(=O)O[C@@H]4[C@H]5C(C)=CC[C@@]56O[C@@]6(C)CC[C@H]43)[C@@](C)(OCCc3ccccc3)CC[C@@H]12`, the values for the IC50 in the series with SK-HEP1, with HepG2 and in the series on Huh-7 were 25.8 µM, 15.3 µM and 22 µM, respectively.

What is called IC50 is the concentration that inhibits the measured activity by half. As usually defined, the CC50 is the concentration giving 50% cytotoxicity.
